Drawing on patent US20110065706A1, “Therapeutic Agents 812” (AstraZeneca AB, priority 2009, published 2011), this text covers activation and EC50 for 32 compounds.

One experiment addresses T1, human GPR119 (Homo sapiens, UniProt Q8TDV5).
T1 construct: expressed in transfected cells; host or cells: HEK 293s
T1 sequence (Q8TDV5 1-335): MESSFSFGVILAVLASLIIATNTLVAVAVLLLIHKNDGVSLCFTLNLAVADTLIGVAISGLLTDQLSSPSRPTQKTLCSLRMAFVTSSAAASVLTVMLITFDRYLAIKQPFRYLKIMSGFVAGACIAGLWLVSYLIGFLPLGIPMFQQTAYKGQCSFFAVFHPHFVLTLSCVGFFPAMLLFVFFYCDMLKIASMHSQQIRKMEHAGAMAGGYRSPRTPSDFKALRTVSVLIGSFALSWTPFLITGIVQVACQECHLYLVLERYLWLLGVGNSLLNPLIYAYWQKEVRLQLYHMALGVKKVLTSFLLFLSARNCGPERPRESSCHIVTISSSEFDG
Put plainly: Cyclic AMP (HTRF cAMP) assay for human GPR119, Method A. It counts as cell-based. Conditions: HEK293S, 0.75 h; Method A; HEK 293s cells over-expressing human GPR119; percent effect at top concentration 30 μM relative to maximum (50 μM Oleoylethanolamide) and minimum (1% DMSO) controls.
In turn, `CC(C)(C)OC(=O)N1CCN(c2ncc(OCc3ccc(S(C)(=O)=O)cc3)cn2)CC1` [Example 1, Tert-butyl 4-(5-(4-(methylsulfonyl)benzyloxy)pyrimidin-2-yl)piperazine-1-carboxylate] came in with an activation at 30 µM of 83%.

On to `CC(C)(C)OC(=O)N1CCN(c2ncc(OCc3ccc(-n4cncn4)cc3)cn2)CC1` [Example 2, tert-butyl 4-(5-(4-(1H-1,2,4-triazol-1-yl)benzyl-oxy)pyrimidin-2-yl)piperazine-1-carboxylate], for which the activation at 30 µM is 131%.

`Cc1nc(-c2ccc(COc3cnc(N4CCN(C(=O)OC(C)(C)C)CC4)nc3)cc2)no1` [Example 4, tert-butyl 4-(5-(4-(5-methyl-1,2,4-oxadiazol-3-yl)benzyloxy)pyrimidin-2-yl)piperazine-1-carboxylate] showed an activation at 30 µM of 69%.

In turn, `CC(C)(C)OC(=O)N1CCN(c2ncc(OCc3ccc(-n4cccn4)nc3)cn2)CC1` [Example 5, tert-butyl 4-(5-((6-(1H-pyrazol-1-yl)pyridin-3-yl)methoxy)pyrimidin-2-yl)piperazine-1-carboxylate] registered an activation at 30 µM of 82%.

With `CC(=O)Nc1ccc(COc2cnc(N3CCN(C(=O)OC(C)(C)C)CC3)nc2)cn1` [Example 6, tert-butyl 4-(5-((6-acetamido-pyridin-3-yl)methoxy)pyrimidin-2-yl)piperazine-1-carboxylate], the activation at 30 µM was found to be 59%.

In turn, `CC(C)(C)OC(=O)N1CCN(c2ncc(OCc3ccc(-n4cnnn4)cc3)cn2)CC1` [Example 7, Tert-butyl 4-(5-(4-(1H-tetrazol-1-yl)benzyloxy)pyrimidin-2-yl)piperazine-1-carboxylate] showed an activation at 30 µM of 170%.

On to `COc1cc(COc2cnc(N3CCN(C(=O)OC(C)(C)C)CC3)nc2)c(F)cn1` [Example 8, tert-butyl 4-(5-((5-fluoro-2-methoxy-pyridin-4-yl)methoxy)pyrimidin-2-yl)piperazine-1-carboxylate], for which the activation at 30 µM stood at 26%.

On to `CC(C)(C)OC(=O)N1CCN(c2ncc(OCc3ccncn3)cn2)CC1` [Example 9, tert-butyl 4-(5-(pyrimidin-4-ylmethoxy)pyrimidin-2-yl)piperazine-1-carboxylate], for which the activation at 30 µM amounted to 61%.

Turning to `Cc1cc(COc2cnc(N3CCN(C(=O)OC(C)(C)C)CC3)nc2)ccc1NC(=O)C(C)C` [Example 12, tert-butyl 4-(5-(4-isobutyr-amido-3-methyl-benzyloxy)pyrimidin-2-yl)piperazine-1-carboxylate], the activation at 30 µM worked out at 54%.

The compound `Cc1cc(COc2cnc(N3CCN(C(=O)OC(C)(C)C)CC3)nc2)ccc1NC(=O)C(C)(C)C` [Example 13, tert-butyl 4-(5-(3-methyl-4-pivalamido-benzyloxy)pyrimidin-2-yl)piperazine-1-carboxylate] displayed an activation at 30 µM of 41%.

With `CC(C)C(=O)Nc1ccc(COc2cnc(N3CCN(C(=O)OC(C)(C)C)CC3)nc2)cc1` [Example 14, tert-butyl 4-(5-(4-isobutyramido-benzyloxy)pyrimidin-2-yl)piperazine-1-carboxylate], the activation at 30 µM came to 78%.

The compound `CC(C)(C)OC(=O)N1CCN(c2ncc(OCc3ccc(NC(=O)C(C)(C)C)cc3)cn2)CC1` [Example 15, tert-butyl 4-(5-(4-pivalamido-benzyloxy)pyrimidin-2-yl)piperazine-1-carboxylate] registered an activation at 30 µM of 80%.

Turning to `CNS(=O)(=O)c1ccc(COc2cnc(N3CCN(C(=O)OC(C)(C)C)CC3)nc2)cc1` [Example 16, tert-butyl 4-(5-(4-(N-methyl-sulfamoyl)benzyloxy)pyrimidin-2-yl)piperazine-1-carboxylate], the activation at 30 µM came out at 57%.

As for `CC(C)(C)OC(=O)N1CCN(c2ncc(OCc3ccc(OS(C)(=O)=O)cc3)cn2)CC1` [Example 17, tert-butyl 4-(5-(4-(methyl-sulfonyloxy)benzyloxy)pyrimidin-2-yl)piperazine-1-carboxylate], the activation at 30 µM was found to be 65%.

As for `C[C@@H]1CN(C(=O)OC(C)(C)C)CCN1c1ncc(OCc2ccc(S(C)(=O)=O)cc2)cn1` [Example 18, (R)-Tert-butyl 3-methyl-4-(5-(4-(methylsulfonyl)benzyloxy)pyrimidin-2-yl)piperazine-1-carboxylate], the activation at 30 µM was 155%.

In turn, `C[C@@H]1CN(C(=O)OC(C)(C)C)CCN1c1ncc(OCc2ccncc2)cn1` [Example 19, (R)-Tert-butyl 3-methyl-4-(5-(pyridin-4-ylmethoxy)pyrimidin-2-yl)piperazine-1-carboxylate] gave an activation at 30 µM of 68%.

`C[C@@H]1CN(C(=O)OC(C)(C)C)CCN1c1ncc(OCc2ccc(C(=O)N(C)CCO)cc2)cn1` [Example 21, (R)-tert-butyl 4-(5-(4-((2-hydroxyethyl) (methyl)carba-moyl)benzyl-oxy)pyrimidin-2-yl)-3-methyl-piperazine-1-carboxylate] gave an activation at 30 µM of 100%.

Take `CC(C)(C)OC(=O)N1C[C@@H]2CC[C@H]1CN2c1ncc(OCc2ccc(S(C)(=O)=O)cc2)cn1` [Example 29, (1S,4S)-tert-butyl 5-(5-(4-(methylsulfonyl)benzyloxy)pyrimidin-2-yl)-2,5-diazabicyclo [2.2.2]octane-2-carboxylate]: the activation at 30 µM stood at 36%.

Regarding `CC(C)(C)OC(=O)N1CCN(c2ncc(OCc3ccc(S(C)(=O)=O)nc3)cn2)CC1` [Example 30, Tert-butyl 4-(5((6-(methylsulfonyl)pyridin-3-yl)methoxy)pyrimidin-2-yl)piperazine-1-carboxylate], the activation at 30 µM worked out at 86%.

Compound `CC(C)(C)OC(=O)N1CCN(c2ncc(OCc3ccc(S(C)(=O)=O)cn3)cn2)CC1` [Example 31, tert-butyl 4-(5-((5-(methylsulfonyl)pyridin-2-yl)methoxy)pyrimidin-2-yl)piperazine-1-carboxylate] gave an activation at 30 µM of 86%.

Compound `CC(C)(C)OC(=O)N1CCN(c2ncc(OCc3ccc(S(C)(=O)=O)c(F)c3)cn2)CC1` [Example 32, tert-butyl 4-(5-(3-fluoro-4-(methylsulfonyl)benzyloxy)pyrimidin-2-yl)piperazine-1-carboxylate] had an activation at 30 µM of 62%.

`Cc1cc(S(C)(=O)=O)ccc1COc1cnc(N2CCN(C(=O)OC(C)(C)C)CC2)nc1` [Example 33, tert-butyl 4-(5-(2-methyl-4-(methylsulfonyl)benzyloxy)pyrimidin-2-yl)piperazine-1-carboxylate] yielded an activation at 30 µM of 82%.

The compound `CC(C)(C)OC(=O)N1CCN(c2ncc(OCc3ccc(S(C)(=O)=O)cc3F)cn2)CC1` [Example 36, tert-butyl 4-(5-(2-fluoro-4-(methylsulf-onyl)benzyl-oxy)pyrimi-din-2-yl)piperazine-1-carboxylate] had an activation at 30 µM of 128%.

As to `Cc1cc(COc2cnc(N3CCN(C(=O)OC(C)(C)C)CC3)nc2)ccc1S(C)(=O)=O` [Example 37, tert-butyl 4-(5-(3-methyl-4-(methylsulf-onyl)benzyl-oxy)pyrimi-din-2-yl)piperazine-1-carboxylate], the activation at 30 µM came out at 52%.

Consider `N#Cc1cnccc1COc1cnc(N2CCN(c3ncc(F)cn3)CC2)nc1` [Example 40, 4-((2-(4-(5-Fluoropyrimidin-2-yl)piperazin-1-yl)pyrimidin-5-yloxy)methyl)nicotinonitrile], for which the activation at 30 µM came to 90%.

The compound `CS(=O)(=O)c1ccc(COc2cnc(N3CCN(c4ncc(F)cn4)CC3)nc2)cc1` [Example 42, 5-fluoro-2-(4-(5-(4-(methylsulfonyl)benzyloxy)pyrim-idin-2-yl)piperazin-1-yl)pyrimidine] showed an activation at 30 µM of 64%.

With `CN(CCO)C(=O)c1ccc(COc2cnc(N3CCN(C(=O)OC(C)(C)C)CC3)nc2)cc1` [Example 43, Tert-butyl 4-(5-(4-((2-hydroxyethyl)(methyl)carbamoyl)benzyloxy)pyrimidin-2-yl)piperazine-1-carboxylate], the activation at 30 µM came to 48%.

For `CC(C)(C)OC(=O)N1CCN(c2ncc(OCc3ccc(C(=O)NCCO)cc3)cn2)CC1` [Example 44, tert-butyl 4-(5-(4-(2-hydroxyethyl-carbamoyl)benz-yloxy)pyrimi-din-2-yl)piperazine-1-carboxylate], the activation at 30 µM amounted to 61%.

In turn, `CNC(=O)c1ccc(COc2cnc(N3CCN(C(=O)OC(C)(C)C)CC3)nc2)cc1` [Example 45, tert-butyl 4-(5-(4-(methylcarba-moyl)benzyloxy)pyrimidin-2-yl)piperazine-1-carboxylate] displayed an activation at 30 µM of 142%.

In the case of `CC(C)NC(=O)c1ccc(COc2cnc(N3CCN(C(=O)OC(C)(C)C)CC3)nc2)cc1` [Example 46, tert-butyl 4-(5-(4-(isopropylcarba-moyl)benzyl-oxy)pyrimidin-2-yl)piperazine-1-carboxylate], the activation at 30 µM amounted to 94%.

As to `CC(C)(C)NC(=O)c1ccc(COc2cnc(N3CCN(C(=O)OC(C)(C)C)CC3)nc2)cc1` [Example 47, tert-butyl 4-(5-(4-(tert-butylcarbamoyl)benzyloxy)pyrimidin-2-yl)piperazine-1-carboxylate], the activation at 30 µM amounted to 109%.

Compound `CN(C)CCNC(=O)c1ccc(COc2cnc(N3CCN(C(=O)OC(C)(C)C)CC3)nc2)cc1` [Example 48, tert-butyl 4-(5-(4-(2-(dimethylamino)ethylcarba-moyl)benzyloxy)pyrimidin-2-yl)piperazine-1-carboxylate] displayed an activation at 30 µM of 26%.

The experiment is the same for the next values; noted with them: Method A; HEK 293s cells over-expressing human GPR119; midpoint of dose response curve; selected examples.
For the compound `CC(C)(C)OC(=O)N1CCN(c2ncc(OCc3ccc(OS(C)(=O)=O)cc3)cn2)CC1` [Example 17, tert-butyl 4-(5-(4-(methyl-sulfonyloxy)benzyloxy)pyrimidin-2-yl)piperazine-1-carboxylate], the response was half-maximal at 20 nM (EC50).

Regarding `C[C@@H]1CN(C(=O)OC(C)(C)C)CCN1c1ncc(OCc2ccc(C(=O)N(C)CCO)cc2)cn1` [Example 21, (R)-tert-butyl 4-(5-(4-((2-hydroxyethyl) (methyl)carba-moyl)benzyl-oxy)pyrimidin-2-yl)-3-methyl-piperazine-1-carboxylate], the EC50 came to 202 nM.

`CC(C)(C)OC(=O)N1CCN(c2ncc(OCc3ccc(S(C)(=O)=O)cc3F)cn2)CC1` [Example 36, tert-butyl 4-(5-(2-fluoro-4-(methylsulf-onyl)benzyl-oxy)pyrimi-din-2-yl)piperazine-1-carboxylate] displayed an EC50 of 19 nM.

The compound `Cc1cc(COc2cnc(N3CCN(C(=O)OC(C)(C)C)CC3)nc2)ccc1S(C)(=O)=O` [Example 37, tert-butyl 4-(5-(3-methyl-4-(methylsulf-onyl)benzyl-oxy)pyrimi-din-2-yl)piperazine-1-carboxylate] gave an EC50 of 20 nM.

As to `CS(=O)(=O)c1ccc(COc2cnc(N3CCN(c4ncc(F)cn4)CC3)nc2)cc1` [Example 42, 5-fluoro-2-(4-(5-(4-(methylsulfonyl)benzyloxy)pyrim-idin-2-yl)piperazin-1-yl)pyrimidine], a half-maximal effect (EC50) was put at 156 nM.

Compound `CC(C)NC(=O)c1ccc(COc2cnc(N3CCN(C(=O)OC(C)(C)C)CC3)nc2)cc1` [Example 46, tert-butyl 4-(5-(4-(isopropylcarba-moyl)benzyl-oxy)pyrimidin-2-yl)piperazine-1-carboxylate] had an EC50 of 32 nM.
